From patent US8765117B2, “Generation of vascularized human heart tissue and uses thereof” (The General Hospital Corporation, priority 2009, dated 2014)
“Also recorded” adds a separate entry of the source.

What was measured:
Format in all cases: cell-based
[1] = system: human Isl1+ primordial progenitors; assay: Differentiation of human Isl1+ primordial progenitors along vasculargenic lineages into Isl1+/CD31+ cells (FACS with anti-CD31); settings: for increase of human Isl1+/CD31+ (GFP+/CD31+) cells: VEGF D4-D22 or ALK5 inhibitor D7-D22, compared to absence of the agent; for proportion of Isl1−/CD31+ cells: human ES cells
Text: When Isl1+ is expressed in this ES cell line, the cells co-express GFP.

mouse Isl1+ cells = assay: Vasculargenic commitment of mouse ES cells into mouse Isl1+/CD31+ cells (FACS with anti-CD31); settings: for proportion of Isl1−/CD31+ cells: mouse ES cells; for vasculargenic commitment / differentiation into Isl1+/CD31+ cells (in words): mouse cells
[2] = system: human ISL1-βgeo BAC transgenic cells; assay: Expansion of hES cell-derived ISL1+ clones on mouse CMC feeders with BIO
Protocol: FIGS. 9A-9B show the expansion and characterization of hES cell-derived ISL1+ cardiac progenitors. FIG. 9A show ISL1+ cells increased by BIO treatment. Day 6 EBs of human ISL1-βgeo BAC transgenic cells were dissociated and cultured on mouse CMC feeders for two days before treated with and without BIO for another five days. Colonies were stained with anti-ISL1 antibody and counted for ISL1+ ones. […] Cells dissociated from day 7 EBs of human ISL1-cre DsRed cells were plated on Wnt3a-secreting feeders, cultured for five days and FACS isolated. Gene expression of DsRed+ cells was compared with DsRed− cells. Bars represent mean±s.d.; n=3.
Canonical Wnt pathways can promote the expansion of Isl1+ cardiac progenitors in the mouse^18-20. […] The inventors then isolated human ISL1-cre DsRed cells from day 7 EBs, which were dissociated and plated on a plastic surface, MEF, Wnt3a-secreting, or L cell feeders.

Row | Molecule | increase of human Isl1+/CD31+ (GFP+/CD31+) cells [1] | increase of human Isl1+/CD31+ (GFP+/CD31+) cells ([1]; listed as ALK5i) [fold] | proportion of Isl1−/CD31+ cells [1] | vasculargenic commitment / differentiation into human Isl1+/CD31+ cells (in words) [1] | vasculargenic commitment / differentiation into human Isl1+/CD31+ cells (in words) ([1]; listed as ALK5i) | overall human Isl1+ (GFP+) population ([1]; prolonged treatment) | proportion of Isl1−/CD31+ cells (mouse Isl1+ cells) | vasculargenic commitment / differentiation into Isl1+/CD31+ cells (in words) (mouse Isl1+ cells) | vasculargenic commitment / differentiation into Isl1+/CD31+ cells (in words) (mouse Isl1+ cells; listed as ALK5i) | ISL1+ cells (in words) ([2]; BIO for five days on mouse CMC feeders) | increase of human ISL1+ clones ([2]; compared to CMC control) | vessel-like structures in vitro ([1]; VEGF treatment) | vessel-like structures (mouse Isl1+ cells; Isl1+ (YFP+) cells sorted at D8, cultured with VEGF until D20) | increase of efficiency of differentiation into Isl1+/CD31+ cells (mouse Isl1+ cells; mouse Isl1+ cells, VEGF about 2 weeks from D4)
1 | NC(=O)c1ccc(-c2nc(-c3ccc4c(c3)OCO4)c(-c3ccccn3)[nH]2)cc1 [SB431542, 4-[4-(1,3-Benzodioxol-5-yl)-5-(2-pyridinyl)-1H-imidazol-2-yl]-benzamide] | 4-5 fold | 4 to 5 | increases the proportion of Isl1−/CD31+ cells | increases the efficiency of differentiation | promotes the vasculargenic commitment | reduced the overall human Isl1+ (GFP+) population | increases the proportion of Isl1−/CD31+ cells | increases the efficiency of differentiation | promotes the vasculargenic commitment |  |  |  |  | 
2 | O=C1Nc2cc(Br)ccc2/C1=C1/Nc2ccccc2/C1=N\O [BIO, 6-bromoindirubin-3′-oxime] |  |  |  |  |  |  |  |  |  | increased | over 30% |  |  | 
3 | VEGF |  |  | increases the proportion of Isl1−/CD31+ cells | promotes the vasculargenic commitment |  |  | increases the proportion of Isl1−/CD31+ cells | promotes the vasculargenic commitment; also recorded: increases efficiency of differentiation |  |  |  | produced vessel-like structures in vitro | demonstrated vessel-like structures | at least 2 fold
